Reference: ChEMBL document CHEMBL4138123, “Design, synthesis and biological evaluation of novel pyrazolochalcones as potential modulators of PI3K/Akt/mTOR pathway and inducers of apoptosis in breast cancer cells” (Eur J Med Chem, 2017)

Experiments:
Type in all cases: functional
OVCAR-5 = assay: Cytotoxicity against human OVCAR5 cells assessed as cell growth at 0.1 uM after 48 hrs by sulforhodamine B assay relative to control; conditions: OVCAR-5, 48 h, read-out: Activity
BT-549 = assay: Cytotoxicity against human BT549 cells assessed as cell growth at 100 uM after 48 hrs by sulforhodamine B assay relative to control; conditions: BT-549, 48 h, read-out: Activity
786-0 [1] = assay: Cytotoxicity against human 786-0 cells assessed as cell growth at 0.01 uM after 48 hrs by sulforhodamine B assay relative to control; conditions: 786-0, 48 h, read-out: Activity
RXF 393 [2] = assay: Cytotoxicity against human RXF393 cells assessed as cell growth at 1 uM after 48 hrs by sulforhodamine B assay relative to control; conditions: RXF 393, 48 h, read-out: Activity
HCC 2998 [3] = assay: Cytotoxicity against human HCC2998 cells assessed as cell growth at 1 uM after 48 hrs by sulforhodamine B assay relative to control; conditions: HCC 2998, 48 h, read-out: Activity
MOLT-4 [4] = assay: Cytotoxicity against human MOLT4 cells assessed as cell growth at 10 uM after 48 hrs by sulforhodamine B assay relative to control; conditions: MOLT-4, 48 h, read-out: Activity
SNB-19 = assay: Cytotoxicity against human SNB19 cells assessed as cell growth at 1 uM after 48 hrs by sulforhodamine B assay relative to control; conditions: SNB-19, 48 h, read-out: Activity
HCT-15 [5] = assay: Cytotoxicity against human HCT15 cells assessed as cell growth at 1 uM after 48 hrs by sulforhodamine B assay relative to control; conditions: HCT-15, 48 h, read-out: Activity
RXF 393 [6] = assay: Cytotoxicity against human RXF393 cells assessed as cell growth at 0.1 uM after 48 hrs by sulforhodamine B assay relative to control; conditions: RXF 393, 48 h, read-out: Activity
A498 = assay: Cytotoxicity against human A498 cells assessed as cell growth at 1 uM after 48 hrs by sulforhodamine B assay relative to control; conditions: A498, 48 h, read-out: Activity
HCT-15 [7] = assay: Cytotoxicity against human HCT15 cells assessed as cell growth at 100 uM after 48 hrs by sulforhodamine B assay relative to control; conditions: HCT-15, 48 h, read-out: Activity
UO-31 = assay: Cytotoxicity against human UO31 cells assessed as cell growth at 0.1 uM after 48 hrs by sulforhodamine B assay relative to control; conditions: UO-31, 48 h, read-out: Activity
PC-3 = assay: Cytotoxicity against human PC3 cells assessed as growth inhibition after 48 hrs by sulforhodamine B assay; conditions: PC-3, 48 h
TK-10 = assay: Cytotoxicity against human TK10 cells assessed as cell growth at 10 uM after 48 hrs by sulforhodamine B assay relative to control; conditions: TK-10, 48 h, read-out: Activity
SK-MEL-28 [8] = assay: Cytotoxicity against human SK-MEL-28 cells assessed as cell growth at 100 uM after 48 hrs by sulforhodamine B assay relative to control; conditions: SK-MEL-28, 48 h, read-out: Activity
RPMI-8226 = assay: Cytotoxicity against human RPMI8226 cells assessed as growth inhibition after 48 hrs by sulforhodamine B assay; conditions: RPMI-8226, 48 h
HCT-15 [9] = assay: Cytotoxicity against human HCT15 cells assessed as cell growth at 0.1 uM after 48 hrs by sulforhodamine B assay relative to control; conditions: HCT-15, 48 h, read-out: Activity
MDA-MB-231 = assay: Cytotoxicity against human MDA-MB-231 cells assessed as cell growth at 0.1 uM after 48 hrs by sulforhodamine B assay relative to control; conditions: MDA-MB-231, 48 h, read-out: Activity
SK-OV-3 = assay: Cytotoxicity against human SKOV3 cells assessed as cell growth at 0.1 uM after 48 hrs by sulforhodamine B assay relative to control; conditions: SK-OV-3, 48 h, read-out: Activity
OVCAR-4 = assay: Cytotoxicity against human OVCAR4 cells assessed as cell growth at 10 uM after 48 hrs by sulforhodamine B assay relative to control; conditions: OVCAR-4, 48 h, read-out: Activity
786-0 [10] = assay: Cytotoxicity against human 786-0 cells assessed as cell growth at 1 uM after 48 hrs by sulforhodamine B assay relative to control; conditions: 786-0, 48 h, read-out: Activity
HCC 2998 [11] = assay: Cytotoxicity against human HCC2998 cells assessed as cell growth at 100 uM after 48 hrs by sulforhodamine B assay relative to control; conditions: HCC 2998, 48 h, read-out: Activity
U-251 = assay: Cytotoxicity against human U251 cells assessed as cell growth at 0.01 uM after 48 hrs by sulforhodamine B assay relative to control; conditions: U-251, 48 h, read-out: Activity
786-0 [12] = assay: Cytotoxicity against human 786-0 cells assessed as cell growth at 0.1 uM after 48 hrs by sulforhodamine B assay relative to control; conditions: 786-0, 48 h, read-out: Activity
IGROV-1 [13] = assay: Cytotoxicity against human IGROV1 cells assessed as cell growth at 0.01 uM after 48 hrs by sulforhodamine B assay relative to control; conditions: IGROV-1, 48 h, read-out: Activity
SK-MEL-28 [14] = assay: Cytotoxicity against human SK-MEL-28 cells assessed as cell growth at 0.01 uM after 48 hrs by sulforhodamine B assay relative to control; conditions: SK-MEL-28, 48 h, read-out: Activity
HT-29 = assay: Cytotoxicity against human HT-29 cells assessed as cell growth at 100 uM after 48 hrs by sulforhodamine B assay relative to control; conditions: HT-29, 48 h, read-out: Activity
UACC-62 = assay: Cytotoxicity against human UACC62 cells assessed as cell growth at 1 uM after 48 hrs by sulforhodamine B assay relative to control; conditions: UACC-62, 48 h, read-out: Activity
OVCAR-8 = assay: Cytotoxicity against human OVCAR8 cells assessed as cell growth at 0.01 uM after 48 hrs by sulforhodamine B assay relative to control; conditions: OVCAR-8, 48 h, read-out: Activity
MOLT-4 [15] = assay: Cytotoxicity against human MOLT4 cells assessed as growth inhibition after 48 hrs by sulforhodamine B assay; conditions: MOLT-4, 48 h; for CC50: read-out: LC50 (the source's name)
IGROV-1 [16] = assay: Cytotoxicity against human IGROV1 cells assessed as cell growth at 10 uM after 48 hrs by sulforhodamine B assay relative to control; conditions: IGROV-1, 48 h, read-out: Activity
NCI-H23 = assay: Cytotoxicity against human NCI-H23 cells assessed as growth inhibition after 48 hrs by sulforhodamine B assay; conditions: NCI-H23, 48 h; for CC50: read-out: LC50 (the source's name)
MDA-MB-435 = assay: Cytotoxicity against human MDA-MB-435 cells assessed as cell growth at 0.1 uM after 48 hrs by sulforhodamine B assay relative to control; conditions: MDA-MB-435, 48 h, read-out: Activity
K562 = assay: Cytotoxicity against human K562 cells assessed as cell growth at 1 uM after 48 hrs by sulforhodamine B assay relative to control; conditions: K562, 48 h, read-out: Activity
ACHN = assay: Cytotoxicity against human ACHN cells assessed as cell growth at 0.01 uM after 48 hrs by sulforhodamine B assay relative to control; conditions: read-out: Activity
NCI/ADR-RES = assay: Cytotoxicity against human NCI/ADR-RES cells assessed as cell growth at 10 uM after 48 hrs by sulforhodamine B assay relative to control; conditions: read-out: Activity

`COc1cc2c(cc1OC)C(=O)/C(=C/c1cc(-c3ccc4c(c3)OCO4)n[nH]1)C2` gave a growth at 0.1 µM (OVCAR-5) of 92%, a growth at 100 µM (BT-549) of -87% and a growth at 0.01 µM (786-0 [1]) of 96%. For the same compound, the growth at 1 µM (RXF 393 [2]) was 80%, the growth at 1 µM (HCC 2998 [3]) was 102% and the growth at 10 µM (MOLT-4 [4]) was -18%. For the same compound, the growth at 1 µM (SNB-19) was 84%, the growth at 1 µM (HCT-15 [5]) was 56% and the growth at 0.1 µM (RXF 393 [6]) was 82%. The growth at 1 µM (A498) was 69%, the growth at 100 µM (HCT-15 [7]) was -69% and the growth at 0.1 µM (UO-31) was 85%. It also gave a GI50 (PC-3) of 1.29 µM, an LC50 (PC-3) of 6.6 µM and a TGI (PC-3) of 2.92 µM. For the same compound, the growth at 10 µM (TK-10) was -95%, the growth at 100 µM (SK-MEL-28 [8]) was -92% and the GI50 (RPMI-8226) was 0.23 µM. The LC50 (RPMI-8226) was 5.52 µM, the TGI (RPMI-8226) was 0.623 µM and the growth at 0.1 µM (HCT-15 [9]) was 93%. For the same compound, the growth at 0.1 µM (MDA-MB-231) was 99%, the growth at 0.1 µM (SK-OV-3) was 105% and the growth at 10 µM (OVCAR-4) was -96%. For the same compound, the growth at 1 µM (786-0 [10]) was 88%, the growth at 100 µM (HCC 2998 [11]) was -94% and the growth at 0.01 µM (U-251) was 97%. The growth at 0.1 µM (786-0 [12]) was 98%, the growth at 0.01 µM (IGROV-1 [13]) was 100% and the growth at 0.01 µM (SK-MEL-28 [14]) was 104%. For the same compound, the growth at 100 µM (HT-29) was -70%, the growth at 1 µM (UACC-62) was 89% and the growth at 0.01 µM (OVCAR-8) was 98%. For the same compound, the GI50 (MOLT-4 [15]) was 2.57 µM, the TGI (MOLT-4 [15]) was 6.97 µM and the CC50 (MOLT-4 [15]) was > 100 µM. For the same compound, the growth at 10 µM (IGROV-1 [16]) was -44%, the GI50 (NCI-H23) was 1.87 µM and the TGI (NCI-H23) was 3.91 µM. For the same compound, the CC50 (NCI-H23) was 8.19 µM, the growth at 0.1 µM (MDA-MB-435) was 96% and the growth at 1 µM (K562) was 62%. For the same compound, the growth at 0.01 µM (ACHN) was 104% and the growth at 10 µM (NCI/ADR-RES) was -17%.
With `COc1cc(-c2cc(/C=C/C(=O)c3ccc(N)cc3)[nH]n2)cc(OC)c1OC` the growth at 0.1 µM (OVCAR-5) was 103%, the growth at 100 µM (BT-549) was -97% and the growth at 0.01 µM (786-0 [1]) was 92%. For the same compound, the growth at 1 µM (RXF 393 [2]) was 67%, the growth at 1 µM (HCC 2998 [3]) was 110% and the growth at 10 µM (MOLT-4 [4]) was -5%. For the same compound, the growth at 1 µM (SNB-19) was 79%, the growth at 1 µM (HCT-15 [5]) was 60% and the growth at 0.1 µM (RXF 393 [6]) was 91%. For the same compound, the growth at 1 µM (A498) was 76%, the growth at 100 µM (HCT-15 [7]) was -17% and the growth at 0.1 µM (UO-31) was 91%. The GI50 (PC-3) was 2.21 µM, the LC50 (PC-3) was > 100 µM and the TGI (PC-3) was 10.4 µM. For the same compound, the growth at 10 µM (TK-10) was 26%, the growth at 100 µM (SK-MEL-28 [8]) was -83% and the GI50 (RPMI-8226) was 0.47 µM. The LC50 (RPMI-8226) was > 100 µM, the TGI (RPMI-8226) was 2.77 µM and the growth at 0.1 µM (HCT-15 [9]) was 94%. For the same compound, the growth at 0.1 µM (MDA-MB-231) was 91%, the growth at 0.1 µM (SK-OV-3) was 98% and the growth at 10 µM (OVCAR-4) was -22%. It also gave a growth at 1 µM (786-0 [10]) of 81%, a growth at 100 µM (HCC 2998 [11]) of -91% and a growth at 0.01 µM (U-251) of 98%. It also gave a growth at 0.1 µM (786-0 [12]) of 94%, a growth at 0.01 µM (IGROV-1 [13]) of 107% and a growth at 0.01 µM (SK-MEL-28 [14]) of 89%. It also gave a growth at 100 µM (HT-29) of -49%, a growth at 1 µM (UACC-62) of 86% and a growth at 0.01 µM (OVCAR-8) of 100%. For the same compound, the GI50 (MOLT-4 [15]) was 1.91 µM, the TGI (MOLT-4 [15]) was 8.51 µM and the CC50 (MOLT-4 [15]) was > 100 µM. It also gave a growth at 10 µM (IGROV-1 [16]) of 1%, a GI50 (NCI-H23) of 2.48 µM and a TGI (NCI-H23) of 6.79 µM. It also gave a CC50 (NCI-H23) of 73.2 µM, a growth at 0.1 µM (MDA-MB-435) of 95% and a growth at 1 µM (K562) of 43%. It also gave a growth at 0.01 µM (ACHN) of 95% and a growth at 10 µM (NCI/ADR-RES) of 15%.
